Measured values: ChEMBL document CHEMBL5465560, “Selectivity Literature for EUbOPEN Chemogenomic Library” (2024)

Columns and labels:
[1] = molecular target: T1, Ephrin type-B receptor 4 (Homo sapiens) (UniProt P54760); assay: Selectivity interaction (Millipore kinase profiler) EUB0000124b EPHB4; settings: at 10 µM
T1 sequence (whole entry): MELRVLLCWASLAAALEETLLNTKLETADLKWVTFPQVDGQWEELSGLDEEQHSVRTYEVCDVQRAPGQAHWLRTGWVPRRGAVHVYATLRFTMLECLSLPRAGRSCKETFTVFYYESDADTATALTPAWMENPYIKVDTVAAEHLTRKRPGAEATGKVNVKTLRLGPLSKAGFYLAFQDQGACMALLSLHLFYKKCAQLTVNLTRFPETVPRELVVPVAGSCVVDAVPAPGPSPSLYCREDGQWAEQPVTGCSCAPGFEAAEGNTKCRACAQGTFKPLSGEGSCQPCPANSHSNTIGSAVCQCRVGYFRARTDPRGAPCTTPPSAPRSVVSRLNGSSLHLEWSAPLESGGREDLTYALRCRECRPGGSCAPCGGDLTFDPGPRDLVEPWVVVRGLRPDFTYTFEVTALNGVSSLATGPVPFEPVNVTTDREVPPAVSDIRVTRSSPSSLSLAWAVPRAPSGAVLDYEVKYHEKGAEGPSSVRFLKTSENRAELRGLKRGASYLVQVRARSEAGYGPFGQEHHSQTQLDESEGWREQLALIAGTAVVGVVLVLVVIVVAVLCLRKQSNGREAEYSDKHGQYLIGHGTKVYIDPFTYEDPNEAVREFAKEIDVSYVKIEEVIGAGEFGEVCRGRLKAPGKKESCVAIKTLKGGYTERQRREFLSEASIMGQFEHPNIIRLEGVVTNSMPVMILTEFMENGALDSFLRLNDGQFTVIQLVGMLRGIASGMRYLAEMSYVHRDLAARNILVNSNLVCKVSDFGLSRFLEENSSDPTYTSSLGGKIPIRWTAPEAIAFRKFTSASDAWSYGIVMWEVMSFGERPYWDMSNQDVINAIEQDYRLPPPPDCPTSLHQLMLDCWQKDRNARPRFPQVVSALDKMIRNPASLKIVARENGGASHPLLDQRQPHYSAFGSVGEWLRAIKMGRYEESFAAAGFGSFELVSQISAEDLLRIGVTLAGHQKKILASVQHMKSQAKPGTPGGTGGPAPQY

[2] = molecular target: Serine/threonine-protein kinase MARK1 (Homo sapiens) (UniProt Q9P0L2); assay: Selectivity interaction (Kinase panel (literature)) EUB0001199aCl MARK1; settings: at 1 µM
Chain of Serine/threonine-protein kinase MARK1 (Homo sapiens) (Q9P0L2 whole entry, looked up): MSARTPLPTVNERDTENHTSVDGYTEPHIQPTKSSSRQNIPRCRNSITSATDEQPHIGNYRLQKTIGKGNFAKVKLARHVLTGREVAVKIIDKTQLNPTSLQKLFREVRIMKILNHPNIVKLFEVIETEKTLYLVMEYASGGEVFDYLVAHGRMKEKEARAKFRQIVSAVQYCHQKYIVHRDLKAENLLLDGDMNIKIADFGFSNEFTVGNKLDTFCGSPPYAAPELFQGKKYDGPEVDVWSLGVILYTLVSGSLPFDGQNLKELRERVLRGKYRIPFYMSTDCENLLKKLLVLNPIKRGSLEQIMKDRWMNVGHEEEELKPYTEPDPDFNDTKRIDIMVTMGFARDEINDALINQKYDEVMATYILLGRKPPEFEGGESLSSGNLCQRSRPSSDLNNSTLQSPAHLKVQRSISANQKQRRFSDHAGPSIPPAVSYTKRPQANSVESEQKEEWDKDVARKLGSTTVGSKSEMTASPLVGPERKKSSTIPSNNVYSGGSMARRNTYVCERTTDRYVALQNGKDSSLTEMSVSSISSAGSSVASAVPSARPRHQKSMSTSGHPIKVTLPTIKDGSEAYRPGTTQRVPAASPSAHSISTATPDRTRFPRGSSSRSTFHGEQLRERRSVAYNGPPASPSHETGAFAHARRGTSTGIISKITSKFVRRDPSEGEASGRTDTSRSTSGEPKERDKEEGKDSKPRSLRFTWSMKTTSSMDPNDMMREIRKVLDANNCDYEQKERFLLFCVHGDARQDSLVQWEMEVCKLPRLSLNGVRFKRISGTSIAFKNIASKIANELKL

[3] = molecular target: T2, Peripheral plasma membrane protein CASK (Homo sapiens) (UniProt O14936); assay: Selectivity interaction (KinomeScan (DiscoverX)) EUB0001079a CASK; settings: at 1 µM
T2 sequence (whole entry): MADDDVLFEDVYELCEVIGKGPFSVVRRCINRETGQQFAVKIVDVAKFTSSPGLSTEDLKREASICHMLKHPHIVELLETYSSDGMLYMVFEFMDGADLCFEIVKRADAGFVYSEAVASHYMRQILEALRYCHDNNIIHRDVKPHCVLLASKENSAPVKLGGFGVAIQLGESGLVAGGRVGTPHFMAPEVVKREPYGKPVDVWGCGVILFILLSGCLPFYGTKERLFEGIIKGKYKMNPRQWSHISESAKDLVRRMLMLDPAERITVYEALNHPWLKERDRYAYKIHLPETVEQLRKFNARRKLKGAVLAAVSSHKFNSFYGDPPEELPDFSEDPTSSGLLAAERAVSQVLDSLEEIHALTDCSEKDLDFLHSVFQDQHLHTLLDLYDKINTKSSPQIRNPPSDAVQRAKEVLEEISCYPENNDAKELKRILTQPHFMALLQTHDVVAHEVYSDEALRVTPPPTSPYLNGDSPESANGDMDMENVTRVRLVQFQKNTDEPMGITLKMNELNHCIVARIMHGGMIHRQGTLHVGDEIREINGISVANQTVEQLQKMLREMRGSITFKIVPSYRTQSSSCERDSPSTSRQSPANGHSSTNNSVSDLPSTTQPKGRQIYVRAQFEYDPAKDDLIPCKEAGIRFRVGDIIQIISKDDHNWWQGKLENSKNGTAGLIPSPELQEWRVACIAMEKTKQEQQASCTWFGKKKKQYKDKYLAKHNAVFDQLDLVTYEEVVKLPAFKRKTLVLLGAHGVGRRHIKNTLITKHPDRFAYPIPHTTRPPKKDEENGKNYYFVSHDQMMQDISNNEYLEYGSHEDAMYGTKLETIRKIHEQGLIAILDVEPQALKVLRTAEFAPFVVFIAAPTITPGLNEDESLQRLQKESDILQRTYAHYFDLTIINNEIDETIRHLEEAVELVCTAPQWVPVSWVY

[4] = molecular target: T3, Serine/threonine-protein kinase Chk1 (Homo sapiens) (UniProt O14757); assay: Selectivity interaction (KinomeScan (DiscoverX)) EUB0001079a CHEK1; settings: at 1 µM
T3 sequence (whole entry): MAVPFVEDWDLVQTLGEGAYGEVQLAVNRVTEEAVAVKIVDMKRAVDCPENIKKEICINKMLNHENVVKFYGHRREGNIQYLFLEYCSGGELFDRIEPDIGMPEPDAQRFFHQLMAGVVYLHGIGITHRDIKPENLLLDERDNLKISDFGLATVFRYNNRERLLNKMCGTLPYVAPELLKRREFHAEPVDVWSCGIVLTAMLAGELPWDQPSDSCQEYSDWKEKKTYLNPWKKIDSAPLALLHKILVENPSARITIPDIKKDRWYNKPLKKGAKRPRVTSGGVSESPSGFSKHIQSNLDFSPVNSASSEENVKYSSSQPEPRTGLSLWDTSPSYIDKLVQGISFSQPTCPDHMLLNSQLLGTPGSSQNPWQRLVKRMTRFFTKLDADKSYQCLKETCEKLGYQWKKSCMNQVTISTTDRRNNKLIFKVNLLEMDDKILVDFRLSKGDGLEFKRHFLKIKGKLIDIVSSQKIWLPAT

[5] = molecular target: T4, Uncharacterized serine/threonine-protein kinase SBK3 (Homo sapiens) (UniProt P0C264); assay: Selectivity interaction (KinomeScan (DiscoverX)) EUB0000695a SBK3; settings: at 100 nM
T4 sequence (whole entry): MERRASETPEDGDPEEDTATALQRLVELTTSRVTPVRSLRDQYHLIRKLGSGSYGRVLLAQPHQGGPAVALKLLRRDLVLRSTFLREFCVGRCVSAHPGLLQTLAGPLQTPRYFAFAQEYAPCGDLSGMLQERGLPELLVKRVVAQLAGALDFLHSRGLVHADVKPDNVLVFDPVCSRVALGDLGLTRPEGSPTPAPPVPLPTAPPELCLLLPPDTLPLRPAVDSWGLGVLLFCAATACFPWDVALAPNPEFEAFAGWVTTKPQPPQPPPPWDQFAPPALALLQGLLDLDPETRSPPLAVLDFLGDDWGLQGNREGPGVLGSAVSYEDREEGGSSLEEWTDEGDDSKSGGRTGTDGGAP

Work on `CC(=O)Nc1cccc(-n2c(=O)n(C3CC3)c(=O)c3c(Nc4ccc(I)cc4F)n(C)c(=O)c(C)c32)c1` yielded a % of control [1] of 124%.

For `CN1Cc2nccc(-c3cn(C)nc3-c3ccc(F)cc3)c2C1=O`, the % of inhibition [2] was 8%.

Compound `Nc1cnc(N2CCc3cc(S(=O)(=O)Nc4c(F)cc(Cl)cc4F)cc(N4CCCC4=O)c32)nc1` [TP-020n] has a % of control [3] of 94% and a % of control [4] of 95%.

For `Cc1cc(F)c(C(=O)Nc2cccc(-c3nncn3C(C)C)n2)cc1-n1cnc(C2CC2)c1`, the % of control [5] was 85%.
